# Test results from patent US8871716B2, “Use of antimicrobial peptides in regeneration of skin cells” (Korea Advanced Institute of Science and Technology, priority 2010, dated 2014).
# Where no end group is shown, it is not given here.
# Columns and labels:
# HaCat = assay: scratched wound-healing assay of skin cell regeneration; format: cell-based, human; settings: 1 μM peptide, 12 hrs incubation
# Experimental: To examine whether each of the peptides synthesized in Example 1 can enhance the regeneration of skin cells, a scratched wound-healing assay was used. 900 μL of a suspension containing HaCat at a concentration of 1×10^5 CFU/ml was placed in each well of 12-well plates and incubated for 3 days. […] A clear zone was set at the center of each well of the plate using a yellow tip. After incubation for 12 hrs, a reduced area of the clear zone was measured to determine the effect of each peptide on the regeneration of skin cells (FIG. 2). For a control, no peptides were used.
# full-thickness wound = full-thickness wound healing on the back of mice; format: in vivo; settings: 50 μL of 1 μM peptide applied to wound once a day for two days
# Experimental: Mice were shaved on the back using an electric razor, followed by forming a full-thickness wound 1.1 cm in diameter using surgical scissors. Application of 50 μL of 1 μM peptide 17 to the wound was continued for 2 days, after which the size of the wound was measured. The wound healing activity of peptide 17 was expressed by the reduced area of the wound (FIG. 3). As the control, the mice were treated with distilled water instead of peptide 17.
# human skin cell HaCat = assay: boyden chamber assay of skin cell migration; format: cell-based; design: migration of skin cells relative to a control: dose or concentration left out as unconfirmed; settings: for skin cell migratory activity relative to the control: 1 μM peptide (most effective concentration), HaCat, control: medium without peptide; for migration of skin cells relative to a control: boyden chamber assay
# Experimental: To examine whether each of the peptides synthesized in Example 1 could promote the migration of skin cells, a boyden chamber assay was used.
# In the chamber of two compartments separated by a microporous membrane, 50 μL of a suspension containing the human skin cell HaCat at a concentration of 5×10^3 CFU/ml was placed in the upper compartment and were allowed to migrate through the pores of the membrane into the lower compartment in which a 0.25˜16 μM dilution of each of the peptides in a skin cell culture medium was present. The cells which migrated into the lower compartment were counted to determine the ability of each of the peptides to promote skin cell […] (FIG. 1). For a control, a skin cell culture medium containing none of the peptides was used.
Sequence,rate of regeneration of skin cells (reduced area of clear zone) versus no peptide (HaCat) [fold],rate of reduction of wound area versus distilled water control (full-thickness wound) [fold],skin cell migratory activity relative to the control (human skin cell HaCat),migration of skin cells relative to a control (human skin cell HaCat)
APKAMKLLKKLLKLQKKGI (APKAMKLLKKLLKLQKKGI-NH2) [Peptide 17],2.5,7,about 4.5 times that of the control,4.5 times higher than a control
APKAMRLLRRLLRLQKKGI (APKAMRLLRRLLRLQKKGI-NH2) [Peptide 26],2.5,,about 4.5 times that of the control,4.5 times higher than a control
